Reference: ChEMBL document CHEMBL4680185, “Discovery of novel cyclin-dependent kinase (CDK) and histone deacetylase (HDAC) dual inhibitors with potent in vitro and in vivo anticancer activity” (Eur J Med Chem, 2020)
pIC50: −log10 of the molar value. Activity calls are given as the source filed them. The rule behind the calls is not given here.

Assays:
[1] = tested on: NCI-H460; test: cells; format: functional; details: Homo sapiens, time 72 hrs, read-out: GI
[2] = tested on: A-375; test: cells; format: functional, cell-based; details: Homo sapiens, A-375, 72 h
Description: Antiproliferative activity against human A375 cells assessed as inhibition of cell growth incubated for 72 hrs by CCK-8 assay

[3] = tested on: SMMC-7721; test: cells; format: functional, cell-based; details: Homo sapiens, SMMC-7721, 72 h
Description: Antiproliferative activity against human SMMC7721 cells assessed as inhibition of cell growth incubated for 72 hrs by CCK-8 assay

[4] = Cytotoxicity against mouse NIH/3T3 cells incubated for 72 hrs by CCK-8 assay; format: cell-based; details: NIH3T3, 72 h
[5] = biological target: Histone deacetylase 1 (Homo sapiens, UniProt Q13547); test: Inhibition of human recombinant HDAC1 preincubated for 10 mins followed by addition of substrate fluor De Lys SIRT1 deacetylase measured after 30 mins by fluorescent plate reader analysis
Chain of Histone deacetylase 1 (Q13547 whole entry): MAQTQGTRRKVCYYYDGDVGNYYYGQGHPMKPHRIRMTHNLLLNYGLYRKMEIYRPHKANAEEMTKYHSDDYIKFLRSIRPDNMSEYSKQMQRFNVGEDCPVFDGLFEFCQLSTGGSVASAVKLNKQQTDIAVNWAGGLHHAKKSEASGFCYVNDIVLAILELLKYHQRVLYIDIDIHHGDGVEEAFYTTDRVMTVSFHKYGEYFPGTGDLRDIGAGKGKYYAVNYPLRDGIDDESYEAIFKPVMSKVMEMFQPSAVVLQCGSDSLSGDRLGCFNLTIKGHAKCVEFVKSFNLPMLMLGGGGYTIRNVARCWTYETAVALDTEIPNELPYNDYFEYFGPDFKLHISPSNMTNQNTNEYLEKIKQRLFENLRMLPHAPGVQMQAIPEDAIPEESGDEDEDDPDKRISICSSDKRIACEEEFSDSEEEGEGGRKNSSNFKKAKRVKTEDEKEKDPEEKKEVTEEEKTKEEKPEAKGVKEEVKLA

[6] = biological target: Histone deacetylase 2 (Homo sapiens, UniProt Q92769); test: Inhibition of human recombinant HDAC2 preincubated for 10 mins followed by addition of substrate fluor De Lys green measured after 30 mins by fluorescent plate reader analysis
Chain of Histone deacetylase 2 (Q92769 whole entry): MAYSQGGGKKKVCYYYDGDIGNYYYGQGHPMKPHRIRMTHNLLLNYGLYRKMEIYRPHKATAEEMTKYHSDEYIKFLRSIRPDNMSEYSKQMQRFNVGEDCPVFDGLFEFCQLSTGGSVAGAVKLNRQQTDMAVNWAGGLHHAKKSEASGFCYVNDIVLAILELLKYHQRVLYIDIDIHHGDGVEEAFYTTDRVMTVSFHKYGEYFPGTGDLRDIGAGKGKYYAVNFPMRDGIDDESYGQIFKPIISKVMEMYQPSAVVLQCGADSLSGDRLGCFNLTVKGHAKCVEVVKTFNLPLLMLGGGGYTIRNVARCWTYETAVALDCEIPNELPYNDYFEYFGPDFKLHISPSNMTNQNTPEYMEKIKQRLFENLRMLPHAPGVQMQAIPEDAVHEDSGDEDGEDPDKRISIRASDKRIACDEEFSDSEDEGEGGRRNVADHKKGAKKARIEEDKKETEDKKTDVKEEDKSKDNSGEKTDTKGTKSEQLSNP

[7] = biological target: Histone deacetylase 3/NCoR1 (Homo sapiens, UniProt O15379); test: Inhibition of human recombinant HDAC3/NCOR1 complex preincubated for 10 mins followed by addition of substrate fluor De Lys SIRT1 deacetylase measured after 30 mins by fluorescent plate reader analysis; format: protein-complex assay
Chain of Histone deacetylase 3/NCoR1 (O15379 whole entry): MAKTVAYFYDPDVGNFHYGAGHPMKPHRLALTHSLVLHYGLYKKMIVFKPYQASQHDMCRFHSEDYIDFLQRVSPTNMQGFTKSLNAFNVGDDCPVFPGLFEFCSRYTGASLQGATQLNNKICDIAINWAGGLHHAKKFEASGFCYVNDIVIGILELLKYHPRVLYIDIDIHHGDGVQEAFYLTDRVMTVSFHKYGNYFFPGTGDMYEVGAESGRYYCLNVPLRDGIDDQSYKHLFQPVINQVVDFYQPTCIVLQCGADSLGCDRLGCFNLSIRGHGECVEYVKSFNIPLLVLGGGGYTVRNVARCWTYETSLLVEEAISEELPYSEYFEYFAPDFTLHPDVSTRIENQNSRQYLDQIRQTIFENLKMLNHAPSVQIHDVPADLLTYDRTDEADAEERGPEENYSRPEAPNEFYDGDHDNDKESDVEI
Chain of Histone deacetylase 3/NCoR1 (O75376 whole entry, further chain): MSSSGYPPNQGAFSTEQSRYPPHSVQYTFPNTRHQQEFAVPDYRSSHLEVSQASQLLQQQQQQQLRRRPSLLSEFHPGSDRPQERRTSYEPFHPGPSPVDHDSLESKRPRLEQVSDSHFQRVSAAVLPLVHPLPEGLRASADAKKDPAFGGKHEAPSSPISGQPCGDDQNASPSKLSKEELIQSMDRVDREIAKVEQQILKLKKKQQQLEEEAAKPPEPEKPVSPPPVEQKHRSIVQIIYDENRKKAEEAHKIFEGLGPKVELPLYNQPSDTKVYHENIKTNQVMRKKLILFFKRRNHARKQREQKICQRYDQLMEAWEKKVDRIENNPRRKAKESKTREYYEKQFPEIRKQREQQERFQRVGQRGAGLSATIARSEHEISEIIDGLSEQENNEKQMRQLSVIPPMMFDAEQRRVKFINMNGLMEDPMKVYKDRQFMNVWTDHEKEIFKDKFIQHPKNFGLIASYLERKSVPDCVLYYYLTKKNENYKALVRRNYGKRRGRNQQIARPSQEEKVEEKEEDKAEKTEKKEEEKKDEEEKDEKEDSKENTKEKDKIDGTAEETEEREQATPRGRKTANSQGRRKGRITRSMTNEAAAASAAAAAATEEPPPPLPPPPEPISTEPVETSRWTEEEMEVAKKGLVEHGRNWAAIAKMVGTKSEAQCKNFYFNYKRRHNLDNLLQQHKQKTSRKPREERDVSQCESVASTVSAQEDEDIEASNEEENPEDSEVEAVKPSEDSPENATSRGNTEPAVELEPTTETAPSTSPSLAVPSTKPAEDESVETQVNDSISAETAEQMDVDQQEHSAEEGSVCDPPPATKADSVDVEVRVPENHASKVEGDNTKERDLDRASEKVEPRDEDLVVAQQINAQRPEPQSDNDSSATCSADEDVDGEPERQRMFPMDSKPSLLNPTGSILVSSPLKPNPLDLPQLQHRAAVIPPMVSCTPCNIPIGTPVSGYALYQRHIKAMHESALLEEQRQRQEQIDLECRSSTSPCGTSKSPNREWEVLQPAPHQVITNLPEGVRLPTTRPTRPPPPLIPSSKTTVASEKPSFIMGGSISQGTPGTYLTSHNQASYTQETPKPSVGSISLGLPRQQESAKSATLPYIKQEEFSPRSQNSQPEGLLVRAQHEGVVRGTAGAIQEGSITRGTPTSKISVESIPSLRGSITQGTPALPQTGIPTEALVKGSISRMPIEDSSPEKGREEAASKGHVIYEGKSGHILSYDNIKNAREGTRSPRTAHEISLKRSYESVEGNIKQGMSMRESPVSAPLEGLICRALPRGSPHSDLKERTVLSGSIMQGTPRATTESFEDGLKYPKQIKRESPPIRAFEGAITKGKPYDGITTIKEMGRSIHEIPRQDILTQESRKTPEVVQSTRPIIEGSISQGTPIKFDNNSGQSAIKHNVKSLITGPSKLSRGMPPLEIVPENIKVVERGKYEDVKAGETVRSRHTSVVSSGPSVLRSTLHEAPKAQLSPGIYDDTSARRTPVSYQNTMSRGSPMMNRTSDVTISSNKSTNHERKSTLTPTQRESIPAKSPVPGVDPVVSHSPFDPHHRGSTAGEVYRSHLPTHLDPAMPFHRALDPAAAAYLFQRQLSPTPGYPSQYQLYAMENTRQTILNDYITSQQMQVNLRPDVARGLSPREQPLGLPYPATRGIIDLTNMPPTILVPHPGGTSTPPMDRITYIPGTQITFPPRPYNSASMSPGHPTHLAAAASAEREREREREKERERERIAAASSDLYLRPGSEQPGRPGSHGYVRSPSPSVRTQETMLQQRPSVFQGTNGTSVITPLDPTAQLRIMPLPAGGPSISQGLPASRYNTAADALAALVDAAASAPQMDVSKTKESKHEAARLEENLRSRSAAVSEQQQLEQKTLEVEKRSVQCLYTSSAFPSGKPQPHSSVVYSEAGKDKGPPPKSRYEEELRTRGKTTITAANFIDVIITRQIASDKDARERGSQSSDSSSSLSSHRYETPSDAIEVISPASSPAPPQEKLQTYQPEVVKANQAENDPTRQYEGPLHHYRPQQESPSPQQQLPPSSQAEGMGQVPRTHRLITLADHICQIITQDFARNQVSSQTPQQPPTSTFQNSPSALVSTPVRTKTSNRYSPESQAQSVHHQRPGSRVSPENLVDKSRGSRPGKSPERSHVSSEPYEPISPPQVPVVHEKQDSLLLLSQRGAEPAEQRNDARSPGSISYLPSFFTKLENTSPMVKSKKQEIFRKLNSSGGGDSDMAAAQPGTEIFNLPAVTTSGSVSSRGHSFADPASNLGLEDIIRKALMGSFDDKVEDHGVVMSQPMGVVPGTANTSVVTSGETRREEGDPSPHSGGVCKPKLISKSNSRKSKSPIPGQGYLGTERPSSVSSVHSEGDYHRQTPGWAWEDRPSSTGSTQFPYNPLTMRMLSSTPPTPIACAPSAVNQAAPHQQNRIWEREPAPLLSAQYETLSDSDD

[8] = biological target: T1, Protein deacetylase HDAC6 (Homo sapiens, UniProt Q9UBN7); test: Inhibition of human recombinant HDAC6 preincubated for 10 mins followed by addition of substrate fluor De Lys SIRT1 deacetylase measured after 30 mins by fluorescent plate reader analysis
T1 sequence (Q9UBN7 whole entry): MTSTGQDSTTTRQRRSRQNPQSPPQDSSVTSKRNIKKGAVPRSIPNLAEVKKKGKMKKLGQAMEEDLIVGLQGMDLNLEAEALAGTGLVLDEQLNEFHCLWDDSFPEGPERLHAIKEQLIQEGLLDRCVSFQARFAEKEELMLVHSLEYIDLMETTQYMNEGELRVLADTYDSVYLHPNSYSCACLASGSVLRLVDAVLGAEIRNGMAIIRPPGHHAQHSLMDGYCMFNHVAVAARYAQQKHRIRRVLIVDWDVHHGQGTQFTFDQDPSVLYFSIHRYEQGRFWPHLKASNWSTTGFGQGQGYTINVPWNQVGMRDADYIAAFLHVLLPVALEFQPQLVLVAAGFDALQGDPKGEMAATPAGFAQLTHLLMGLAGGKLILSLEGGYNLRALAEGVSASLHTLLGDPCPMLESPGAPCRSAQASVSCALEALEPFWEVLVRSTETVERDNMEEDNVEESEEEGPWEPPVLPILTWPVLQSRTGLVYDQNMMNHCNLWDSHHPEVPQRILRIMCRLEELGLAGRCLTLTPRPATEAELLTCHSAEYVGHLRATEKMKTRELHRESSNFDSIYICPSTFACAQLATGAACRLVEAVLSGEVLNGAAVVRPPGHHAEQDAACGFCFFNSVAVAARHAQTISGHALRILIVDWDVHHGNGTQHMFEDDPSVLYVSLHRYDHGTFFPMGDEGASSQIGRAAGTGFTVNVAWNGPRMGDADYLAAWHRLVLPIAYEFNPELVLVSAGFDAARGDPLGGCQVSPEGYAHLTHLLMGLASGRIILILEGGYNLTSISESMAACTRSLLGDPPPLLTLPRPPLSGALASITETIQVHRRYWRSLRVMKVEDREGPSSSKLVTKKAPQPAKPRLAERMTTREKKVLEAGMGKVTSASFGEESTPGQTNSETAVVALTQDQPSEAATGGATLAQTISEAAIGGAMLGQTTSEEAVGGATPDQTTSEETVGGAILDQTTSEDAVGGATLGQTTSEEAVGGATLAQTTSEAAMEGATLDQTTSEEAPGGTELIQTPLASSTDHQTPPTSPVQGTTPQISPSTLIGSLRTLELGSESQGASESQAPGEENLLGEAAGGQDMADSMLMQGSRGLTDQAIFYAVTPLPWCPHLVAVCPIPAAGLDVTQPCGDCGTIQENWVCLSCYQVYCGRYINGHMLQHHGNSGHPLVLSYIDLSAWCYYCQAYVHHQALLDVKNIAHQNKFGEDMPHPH

[9] = biological target: CDK1/Cyclin A (Homo sapiens, UniProt P06493); test: Inhibition of recombinant human full length CDK1/cyclin A2 expressed in Sf9 cells incubated for 10 mins by ADP-Glo reagent assay
[10] = biological target: CDK2/Cyclin A2 (Homo sapiens, UniProt P24941); test: Inhibition of recombinant human full length CDK2/cyclin A2 incubated for 10 mins by ADP-Glo reagent assay; format: protein-complex assay
[11] = biological target: Cyclin-dependent kinase 4/cyclin D1 (Homo sapiens, UniProt P11802); test: Inhibition of recombinant human full length CDK4/cyclin D1 expressed in Sf9 cells incubated for 10 mins by ADP-Glo reagent assay
Chain of Cyclin-dependent kinase 4/cyclin D1 (P11802 whole entry): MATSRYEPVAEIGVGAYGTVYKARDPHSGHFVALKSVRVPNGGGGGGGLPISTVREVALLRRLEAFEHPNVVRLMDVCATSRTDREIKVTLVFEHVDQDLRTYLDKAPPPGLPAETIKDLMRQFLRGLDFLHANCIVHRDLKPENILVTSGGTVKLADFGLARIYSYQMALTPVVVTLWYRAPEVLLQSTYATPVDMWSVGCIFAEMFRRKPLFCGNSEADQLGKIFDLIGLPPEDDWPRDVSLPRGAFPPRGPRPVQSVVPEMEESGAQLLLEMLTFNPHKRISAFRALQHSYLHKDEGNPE
Chain of Cyclin-dependent kinase 4/cyclin D1 (P24385 whole entry, further chain): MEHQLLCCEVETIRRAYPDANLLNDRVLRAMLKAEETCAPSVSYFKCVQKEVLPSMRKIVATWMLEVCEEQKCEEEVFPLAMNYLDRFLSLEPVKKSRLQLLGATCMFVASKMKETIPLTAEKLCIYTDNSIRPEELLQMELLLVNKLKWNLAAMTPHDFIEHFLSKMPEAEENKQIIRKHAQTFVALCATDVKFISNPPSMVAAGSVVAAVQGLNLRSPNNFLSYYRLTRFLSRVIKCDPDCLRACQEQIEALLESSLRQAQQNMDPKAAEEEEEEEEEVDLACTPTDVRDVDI

[12] = biological target: Cyclin-dependent kinase 7/ cyclin H (Homo sapiens, UniProt P50613); test: Inhibition of recombinant human full length CDK7/cyclin H1 expressed in Sf9 cells incubated for 10 mins by ADP-Glo reagent assay
[13] = tested on: A-375; test: Antimigratory activity against human A375 cells assessed as inhibition of cell migration at 0.25 uM measured after 48 hrs by cell scratch assay; format: functional, cell-based
[14] = tested on: NCI-H460; test: Cell cycle arrest in human H460 cells assessed as increase in number of cells at G2/M phase at 0.5 to 2 uM incubated for 24 hrs by propidium iodide staining based flow cytometry; format: functional; details: dose 0.5-2 µM
[15] = tested on: A-375; test: Induction of apoptosis in human A375 cells assessed as number of apoptotic cells at 2 uM incubated for 48 hrs by annexin V-FITC/PI based flow cytometric analysis relative to control; format: functional
[16] = tested on: HCT-116; test: Induction of apoptosis in human HCT116 cells assessed as number of apoptotic cells at 2 uM incubated for 48 hrs by annexin V-FITC/PI based flow cytometric analysis relative to control; format: functional
[17] = tested on: HeLa; test: Induction of apoptosis in human HeLa cells assessed as number of apoptotic cells at 0.5 to 2 uM incubated for 48 hrs by annexin V-FITC/PI based flow cytometric analysis; format: functional, cell-based; details: dose 0.5-2 µM
[18] = Half life in ICR mouse at 20 mg/kg, ip by LC-MS/MS analysis; format: ADME, organism-based; details: in vivo
[19] = Cmax in ICR mouse at 20 mg/kg, ip by LC-MS/MS analysis; format: ADME, organism-based; parameters: route intraperitoneal, dose 20 mg/kg; details: in vivo
[20] = Biovailability in ICR mouse at 20 mg/kg, ip; format: ADME, organism-based; details: in vivo
[21] = tested on: NCI-H460; test: cells; format: functional; details: Homo sapiens, time 72 hrs, read-out: GI; remark: listed apart in the source
[22] = biological target: Histone deacetylase (Homo sapiens) (UniProt Q13547+O15379+Q9UBN7+Q92769+Q9UQL6+Q8WUI4+Q9BY41+Q96DB2+P56524+Q9UKV0+Q969S8); test: Inhibition of HDAC in human A375 cells assessed as increase in acetylation of H3K9 at 1 uM measured after 12 hr by DAPI staining based immunofluorescence analysis; format: cell-based; details: A-375
[23] = tested on: A-375; test: Induction of ROS generation in human A375 cells at 1 uM measured after 24 hrs by fluorescence microscopic analysis

Compound | inhibition of growth at 8 µM [1] [%] | pIC50 [2] | pIC50 [3] | pIC50 [4] | pIC50 [5] | pIC50 [6] | pIC50 [7] | pIC50 [8] | pIC50 [9] | pIC50 [10] | pIC50 [11] | pIC50 [12] | inhibition [13] | Activity [14] | Activity [15] [%] | Activity [16] [%] | Activity [17] | t1/2 [18] [h] | Cmax [19] [ng/mL] | bioavailability [20] [%] | other results
Nc1ccccc1NC(=O)c1ccc(CNC(=O)c2n[nH]cc2NC(=O)c2c(Cl)cccc2Cl)cc1 | 78.3 | 5.92 | 5.11 | 5.35 | 8.19 | 9.60 | 7.35 | < 6.00 | 8.06 | 9.52 | < 6.00 | < 6.00 | Active | Active | 97.22 | 60.6 | Active | 2.61 | 7570 | 63.6 | inhibition of growth at 2 µM [21]: 32.8%; inhibition [22]: Active; Activity [23]: Active
Nc1ccccc1NC(=O)Cc1ccc(NC(=O)c2n[nH]cc2NC(=O)c2c(Cl)cccc2Cl)cc1 | 67.4 | 5.80 | 5.28 | 5.33 | 6.62 | 9.62 | < 6.00 | < 6.00 | 7.90 | 9.25 | < 6.00 | < 6.00 | Active | Active | 73.08 | 77.1 | Active | 1.63 | 2170 | 27.8 | inhibition of growth at 2 µM [21]: 57.3%; inhibition [22]: Active; Activity [23]: Active
